# Calls of active or inactive are those of the source. The calls are words filed in the database; no cut-off is given here.
# How the values were obtained:
# HepG2 = experiment: Antiproliferative activity against human HepG2 cells assessed as inhibition of cell growth incubated for 48 hrs by MTT assay; type: functional, cell-based; settings: HepG2, 48 h
# HCT-116 [1] = experiment: Antiproliferative activity against human HCT-116 cells assessed as inhibition of cell growth incubated for 48 hrs by MTT assay; type: functional, cell-based; settings: HCT-116, 48 h
# A549 = experiment: Antiproliferative activity against human A549 cells assessed as inhibition of cell growth incubated for 48 hrs by MTT assay; type: functional, cell-based; settings: A549, 48 h
# MDA-MB-231 = experiment: Antiproliferative activity against human MDA-MB-231 cells assessed as inhibition of cell growth incubated for 48 hrs by MTT assay; type: functional, cell-based; settings: MDA-MB-231, 48 h
# Tubulin (Sus scrofa) = Tubulin (Sus scrofa) (UniProt P02554+P02550); experiment: (§1) Inhibition of pig brain tubulin polymerization in the presence of GTP by spectrophotometric analysis; settings: DDE = dose-dependent effect
# Chain of Tubulin (Sus scrofa) (P02550 whole entry, looked up): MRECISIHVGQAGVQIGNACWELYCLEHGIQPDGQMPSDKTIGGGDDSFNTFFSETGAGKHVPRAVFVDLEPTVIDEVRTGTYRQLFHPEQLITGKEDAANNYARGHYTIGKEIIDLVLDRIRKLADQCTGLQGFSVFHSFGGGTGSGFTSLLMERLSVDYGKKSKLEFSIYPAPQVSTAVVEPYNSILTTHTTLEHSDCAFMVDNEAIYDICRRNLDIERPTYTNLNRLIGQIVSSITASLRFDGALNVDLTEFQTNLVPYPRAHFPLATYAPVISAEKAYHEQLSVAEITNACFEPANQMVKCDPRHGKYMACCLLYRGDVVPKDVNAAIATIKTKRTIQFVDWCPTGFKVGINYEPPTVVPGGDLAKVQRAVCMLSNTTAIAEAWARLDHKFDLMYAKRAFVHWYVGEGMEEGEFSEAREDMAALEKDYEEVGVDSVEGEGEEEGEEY
# Chain of Tubulin (Sus scrofa) (P02554 whole entry, looked up): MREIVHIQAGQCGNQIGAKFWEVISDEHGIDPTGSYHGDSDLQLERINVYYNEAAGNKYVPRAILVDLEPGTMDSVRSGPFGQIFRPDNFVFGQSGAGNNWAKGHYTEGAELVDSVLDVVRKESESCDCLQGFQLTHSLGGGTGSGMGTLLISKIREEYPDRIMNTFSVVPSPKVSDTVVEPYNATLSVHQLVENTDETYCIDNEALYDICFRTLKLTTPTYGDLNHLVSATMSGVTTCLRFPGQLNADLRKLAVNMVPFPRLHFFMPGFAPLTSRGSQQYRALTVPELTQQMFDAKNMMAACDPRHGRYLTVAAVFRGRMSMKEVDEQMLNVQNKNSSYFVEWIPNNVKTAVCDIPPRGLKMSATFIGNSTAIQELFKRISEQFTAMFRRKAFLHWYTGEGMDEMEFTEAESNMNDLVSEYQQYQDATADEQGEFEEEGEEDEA
# Tubulin = Tubulin (Sus scrofa, UniProt P02554+P02550); experiment: as §1
# HCT-116 [2] = experiment: Induction of apoptosis in human HCT-116 cells assessed as total apoptotic cells at 20 nM incubated for 48 hrs by Annexin-V FITC/PI staining based flow cytometry analysis (reference value: 5.76 %); type: functional
# HCT-116 [3] = experiment: Induction of apoptosis in human HCT-116 cells assessed as total apoptotic cells at 40 nM incubated for 48 hrs by Annexin-V FITC/PI staining based flow cytometry analysis (reference value: 5.76 %); type: functional
# HCT-116 [4] = experiment: Induction of apoptosis in human HCT-116 cells assessed as total apoptotic cells at 80 nM incubated for 48 hrs by Annexin-V FITC/PI staining based flow cytometry analysis (reference value: 5.76 %); type: functional
# HCT-116 [5] = experiment: Induction of apoptosis in human HCT-116 cells assessed as total apoptotic cells at 120 nM incubated for 48 hrs by Annexin-V FITC/PI staining based flow cytometry analysis (reference value: 5.76 %); type: functional
# HCT-116 [6] = experiment: Induction of cell cycle arrest in human HCT-116 cells assessed as G1 phase cells at 20 nM measured after 48 hrs by propidium iodide/RNase staining based flow cytometry analysis (reference value: 61.51 %); type: functional
# HCT-116 [7] = experiment: Induction of cell cycle arrest in human HCT-116 cells assessed as S phase cells at 20 nM measured after 48 hrs by propidium iodide/RNase staining based flow cytometry analysis (reference value: […] %); type: functional
# HCT-116 [8] = experiment: Induction of cell cycle arrest in human HCT-116 cells assessed as increase in G2/M phase cells at 20 nM measured after 48 hrs by propidium iodide/RNase staining based flow cytometry analysis (reference value: […] %); type: functional
# HCT-116 [9] = experiment: Induction of cell cycle arrest in human HCT-116 cells assessed as G1 phase cells at 40 nM measured after 48 hrs by propidium iodide/RNase staining based flow cytometry analysis (reference value: 61.51 %); type: functional
# HCT-116 [10] = experiment: Induction of cell cycle arrest in human HCT-116 cells assessed as S phase cells at 40 nM measured after 48 hrs by propidium iodide/RNase staining based flow cytometry analysis (reference value: […] %); type: functional
# HCT-116 [11] = experiment: Induction of cell cycle arrest in human HCT-116 cells assessed as increase in G2/M phase cells at 40 nM measured after 48 hrs by propidium iodide/RNase staining based flow cytometry analysis (reference value: […] %); type: functional
# HCT-116 [12] = experiment: Induction of cell cycle arrest in human HCT-116 cells assessed as G1 phase cells at 80 nM measured after 48 hrs by propidium iodide/RNase staining based flow cytometry analysis (reference value: 61.51 %); type: functional
# HCT-116 [13] = experiment: Induction of cell cycle arrest in human HCT-116 cells assessed as S phase cells at 80 nM measured after 48 hrs by propidium iodide/RNase staining based flow cytometry analysis (reference value: […] %); type: functional
# HCT-116 [14] = experiment: Induction of cell cycle arrest in human HCT-116 cells assessed as increase in G2/M phase cells at 80 nM measured after 48 hrs by propidium iodide/RNase staining based flow cytometry analysis (reference value: […] %); type: functional
# HCT-116 [15] = experiment: Induction of cell cycle arrest in human HCT-116 cells assessed as G1 phase cells at 120 nM measured after 48 hrs by propidium iodide/RNase staining based flow cytometry analysis (reference value: 61.51 %); type: functional
# HCT-116 [16] = experiment: Induction of cell cycle arrest in human HCT-116 cells assessed as S phase cells at 120 nM measured after 48 hrs by propidium iodide/RNase staining based flow cytometry analysis (reference value: […] %); type: functional
# HCT-116 [17] = experiment: Induction of cell cycle arrest in human HCT-116 cells assessed as increase in G2/M phase cells at 120 nM measured after 48 hrs by propidium iodide/RNase staining based flow cytometry analysis (reference value: […] %); type: functional
# HCT-116 [18] = experiment: Inhibition of cell migration in human HCT-116 cells assessed as suppression of wound closure at 10 nM incubated for 48 hrs by wound healing assay relative to control; type: functional
# HCT-116 [19] = experiment: Inhibition of cell migration in human HCT-116 cells assessed as suppression of wound closure at 20 nM incubated for 48 hrs by wound healing assay relative to control; type: functional
# HCT-116 [20] = experiment: Inhibition of cell migration in human HCT-116 cells assessed as suppression of wound closure at 40 nM incubated for 48 hrs by wound healing assay relative to control; type: functional
# HCT-116 [21] = experiment: Inhibition of cell migration in human HCT-116 cells assessed as suppression of wound closure at 80 nM incubated for 48 hrs by wound healing assay relative to control; type: functional
# Tubulin (Homo sapiens) [22] = biological target: T1, Tubulin (Homo sapiens) (UniProt P68371+Q9H4B7+P0DPH7+P68366+Q13509+Q71U36+P04350+Q3ZCM7+P07437+P68363+Q9BQE3+Q6PEY2+Q13885+Q9BVA1+Q9BUF5); experiment: Induction of microtubule disruption in human HCT-116 cells assessed as short microtubules at 20 to 60 nM incubated for 48 hrs by DAPI staining based confocal microscopic immunofluorescence analysis; type: cell-based; settings: dose 20-60 nM
# Tubulin (Homo sapiens) [23] = biological target: T1, Tubulin (Homo sapiens); experiment: Induction of microtubule disruption in human HCT-116 cells assessed as disintegrated microtubules at 20 to 60 nM incubated for 48 hrs by DAPI staining based confocal microscopic immunofluorescence analysis; type: cell-based; settings: dose 20-60 nM
structure (smiles),measurement,setting,value
COc1cc(-c2nccn3cc(-c4ccc5[nH]ccc5c4)nc23)cc(OC)c1OC,IC50,HepG2,146 nM
same,IC50,HCT-116 [1],23 nM
same,IC50,A549,154 nM
same,IC50,MDA-MB-231,74 nM
same,inhibition,Tubulin (Sus scrofa),Dde
same,IC50,Tubulin,45700 nM
same,Activity,HCT-116 [2],6.25%
same,Activity,HCT-116 [3],29.53%
same,Activity,HCT-116 [4],37.2%
same,Activity,HCT-116 [5],50.07%
same,Activity,HCT-116 [6],61.42%
same,Activity,HCT-116 [7],17.47%
same,Activity,HCT-116 [8],21.11%
same,Activity,HCT-116 [9],60.42%
same,Activity,HCT-116 [10],21.98%
same,Activity,HCT-116 [11],17.6%
same,Activity,HCT-116 [12],11.9%
same,Activity,HCT-116 [13],8.87%
same,Activity,HCT-116 [14],79.23%
same,Activity,HCT-116 [15],8.17%
same,Activity,HCT-116 [16],12.16%
same,Activity,HCT-116 [17],79.67%
same,inhibition at 0.01 µM,HCT-116 [18],30.8%
same,inhibition at 0.02 µM,HCT-116 [19],55%
same,inhibition at 0.04 µM,HCT-116 [20],56.8%
same,inhibition at 0.08 µM,HCT-116 [21],60.6%
same,Activity,Tubulin (Homo sapiens) [22],Active
same,Activity,Tubulin (Homo sapiens) [23],Active

# From ChEMBL document CHEMBL5150065, “Design, synthesis, and bioevaluation of imidazo [1,2-a] pyrazine derivatives as tubulin polymerization inhibitors with potent anticancer activities” (Bioorg Med Chem, 2022)
